ChEMBL document CHEMBL1201862, “PubChem BioAssay data set” (2004)
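Values below derive from 48-hour exposures of cells grown in 96-well plates, with endpoints linearly interpolated between the two concentrations bracketing the appropriate inhibition level. GI50 is the concentration that inhibits growth by half.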 The source made the active and inactive calls. No stated cut-off is given here; in the data, active = GI50 up to about 1.1 µM and inactive = higher. Where a SMILES comes first, the peptide text is derived from it. [ ]: non-standard residue; d: D form. The star is where a group is joined. Bn2Val = CC(C)[C@@H](C(=O)*)N(Cc1ccccc1)Cc1ccccc1; NH(4-F-benzyl) = Fc1ccc(CN*)cc1; NMeV = CN[C@H](C(=O)O)C(C)C; dNMeA = CN[C@H](C)C(=O)O

Legend:
Test in all cases: NCI tumour cell line growth inhibition, 48 h
786-0 = system: 786-0
BT-549 = system: BT-549
CAKI-1 = system: CAKI-1
COLO 205 = system: COLO 205
HCC 2998 = system: HCC 2998
HOP-92 = system: HOP-92
M14 = system: M14
MOLT-4 = system: MOLT-4
Malme-3M = system: Malme-3M
NCI-H226 = system: NCI-H226
NCI-H522 = system: NCI-H522
NCI/ADR-RES = system: NCI/ADR-RES
OVCAR-5 = system: OVCAR-5
RPMI-8226 = system: RPMI-8226
SF-268 = system: SF-268
SK-MEL-2 = system: SK-MEL-2
SN12C = system: SN12C
SNB-19 = system: SNB-19
U-251 = system: U-251
UACC-257 = system: UACC-257

Measured: GI50

CC1=NN=C(C)C1/N=N/c1ccc2[nH]c(C)nc2c1
inactive: 786-0 34.4 µM | BT-549 20.8 µM | CAKI-1 5.02 µM | COLO 205 29.6 µM | HCC 2998 58.7 µM | HOP-92 14.8 µM | M14 23.1 µM | MOLT-4 13.7 µM | Malme-3M 6.85 µM | NCI-H226 3.84 µM | NCI-H522 6.95 µM | NCI/ADR-RES 38.4 µM | OVCAR-5 26.2 µM | RPMI-8226 13.7 µM | SF-268 10.9 µM | SK-MEL-2 8.07 µM | SN12C > 52 µM | SNB-19 > 100 µM | U-251 34.6 µM | UACC-257 47.6 µM

CCN(CC)Cc1nc(C2CCC([N+](=O)[O-])O2)no1 (stereo not given)
inactive: 786-0 40 µM | BT-549 23.3 µM | CAKI-1 72.8 µM | COLO 205 16.6 µM | HCC 2998 20.6 µM | HOP-92 > 100 µM | M14 14.5 µM | MOLT-4 53.5 µM | Malme-3M 15.9 µM | NCI-H226 67.8 µM | NCI-H522 15.9 µM | NCI/ADR-RES 26.7 µM | OVCAR-5 29.3 µM | RPMI-8226 31.3 µM | SF-268 24.5 µM | SK-MEL-2 21.7 µM | SN12C 47.1 µM | SNB-19 28.6 µM | U-251 28.5 µM | UACC-257 19.9 µM

C(=N\NC1=NCCCN1)/c1ccc(-c2cn3cc(/C=N/NC4=NCCCN4)ccc3n2)cc1
inactive: 786-0 18.9 µM | BT-549 > 100 µM | CAKI-1 37 µM | COLO 205 > 100 µM | HCC 2998 > 53.3 µM | HOP-92 59 µM | M14 > 81.1 µM | MOLT-4 5.73 µM | Malme-3M 19 µM | NCI-H226 45.3 µM | NCI-H522 > 100 µM | NCI/ADR-RES > 100 µM | OVCAR-5 > 100 µM | RPMI-8226 > 27.9 µM | SF-268 > 100 µM | SK-MEL-2 > 100 µM | SN12C > 100 µM | SNB-19 > 100 µM | U-251 > 88.9 µM | UACC-257 > 100 µM

Oc1ccc(NCc2cc(O)ccc2O)cc1
inactive: 786-0 15 µM | BT-549 12.7 µM | CAKI-1 16 µM | COLO 205 23.3 µM | HCC 2998 16.9 µM | HOP-92 13.1 µM | M14 17.8 µM | MOLT-4 3.07 µM | Malme-3M 19.1 µM | NCI-H226 18.9 µM | NCI-H522 2.06 µM | NCI/ADR-RES 18.4 µM | OVCAR-5 18.3 µM | RPMI-8226 4.99 µM | SF-268 17.2 µM | SK-MEL-2 18.2 µM | SN12C 15.3 µM | SNB-19 18.5 µM | U-251 15.7 µM | UACC-257 14.9 µM

CC(C)[C@H](NC(=O)[C@H](C(C)C)N(Cc1ccccc1)Cc1ccccc1)C(=O)N(C)[C@H](C(=O)N1CCC[C@H]1C(=O)N(C)[C@H](C)C(=O)NCc1ccc(F)cc1)C(C)C (Bn2Val-V[NMeV]P[dNMeA]-{NH(4-F-benzyl)})
inactive: 786-0 4.23 µM | BT-549 4.06 µM | CAKI-1 5.13 µM | COLO 205 1.74 µM | HCC 2998 3.48 µM | HOP-92 2.97 µM | M14 3.05 µM | MOLT-4 2.55 µM | Malme-3M 3.63 µM | NCI-H226 2.65 µM | NCI-H522 3.01 µM | NCI/ADR-RES 4.38 µM | OVCAR-5 3.59 µM | RPMI-8226 3.27 µM | SF-268 3.19 µM | SK-MEL-2 2.12 µM | SN12C 3.15 µM | SNB-19 4.88 µM | U-251 3.3 µM | UACC-257 5.19 µM

O=C(NN=C1CCCCC1)Nc1ccccc1Cl
inactive: 786-0 > 100 µM | BT-549 64.4 µM | CAKI-1 92.7 µM | COLO 205 31.3 µM | HCC 2998 59.3 µM | HOP-92 23.6 µM | M14 29.8 µM | MOLT-4 47.8 µM | Malme-3M 40.3 µM | NCI-H226 39.9 µM | NCI-H522 23.1 µM | NCI/ADR-RES 24.1 µM | OVCAR-5 54.2 µM | RPMI-8226 45.9 µM | SF-268 41.1 µM | SK-MEL-2 28.6 µM | SN12C 57.5 µM | SNB-19 64.3 µM | U-251 84.5 µM | UACC-257 78.7 µM
